Measurements taken from US9174964B2, “AMPK-activating piperidinyloxy-substituted 2,3-dihydro-1H-indene-1-amine compounds and pharmaceutical compositions including the same” (Rigel Pharmaceuticals, Inc., priority 2007, dated 2015).
Counter-ions that a name gives are not always drawn.

What follows are compounds tested against AMPK (assay: AMPK activation, enzyme-linked immunosorbent assay). Settings: Table 4, AMPK activation, ELISA.
Assay type: biochemical

Compared with N#Cc1ccc(CN2CCC(NC(=O)c3cc4ccc(OC5CCN(c6ccc(C(F)(F)F)cc6)CC5)cc4o3)CC2)cc1 [Compound 90, N-(1-(4-cyanobenzyl)piperidin-4-yl)-6-(1-(4-(trifluoromethyl)phenyl)piperidin-4-yloxy)benzofuran-2-carboxamide], O=C(NC1CCN(Cc2ccc(F)cc2)CC1)c1cc2ccc(OC3CCN(c4ccc(C(F)(F)F)cc4)CC3)cc2o1 [Compound 91, N-(1-(4-fluorobenzyl)piperidin-4-yl)-6-(1-(4-(trifluoromethyl)phenyl)piperidin-4-yloxy)benzofuran-2-carboxamide] is higher in EC50: under 100 nM for the first, over 50000 nM for the second.

First: O=C(NC1CCN(Cc2ccccn2)CC1)c1cc2ccc(OC3CCN(c4ccc(OC(F)(F)F)cc4)CC3)cc2o1 [Compound 92, N-(1-(pyridin-2-ylmethyl)piperidin-4-yl)-6-(1-(4-(trifluoromethoxy)phenyl)piperidin-4-yloxy)benzofuran-2-carboxamide]
Second: O=C(NC1CCN(Cc2ccccn2)CC1)c1cc2ccc(OC3CCN(c4ccc(C(F)(F)F)cc4)CC3)cc2o1 [Compound 93, N-(1-(pyridin-2-ylmethyl)piperidin-4-yl)-6-(1-(4-(trifluoromethyl)phenyl)piperidin-4-yloxy)benzofuran-2-carboxamide]
The EC50 of the first is higher: 500 to 1000 nM for the first, 100 to 500 nM for the second.

O=C(NC1CCN(Cc2ccc(F)cc2)CC1)c1cc2ccc(OC3CCN(c4ccc(OC(F)(F)F)cc4)CC3)cc2o1 [Compound 94, N-(1-(4-fluorobenzyl)piperidin-4-yl)-6-(1-(4-(trifluoromethoxy)phenyl)piperidin-4-yloxy)benzofuran-2-carboxamide] and O=C(NC1CCN(Cc2cccnc2)CC1)c1cc2ccc(OC3CCN(c4ccc(OC(F)(F)F)cc4)CC3)cc2o1 [Compound 95, N-(1-(pyridin-3-ylmethyl)piperidin-4-yl)-6-(1-(4-(trifluoromethoxy)phenyl)piperidin-4-yloxy)benzofuran-2-carboxamide] cannot be ordered by EC50: under 100 nM for the first, under 100 nM for the second.

O=C(NC1CCN(Cc2cccnc2)CC1)c1cc2ccc(OC3CCN(c4ccc(C(F)(F)F)cc4)CC3)cc2o1 [Compound 96, N-(1-(pyridin-3-ylmethyl)piperidin-4-yl)-6-(1-(4-(trifluoromethyl)phenyl)piperidin-4-yloxy)benzofuran-2-carboxamide] and O=C(NC1CCN(Cc2cccnc2)CC1)c1cc2cc(OC3CCN(c4ccc(C(F)(F)F)cc4)CC3)ccc2o1 [Compound 101, N-(1-(pyridin-3-ylmethyl)piperidin-4-yl)-5-(1-(4-(trifluoromethyl)phenyl)piperidin-4-yloxy)benzofuran-2-carboxamide] cannot be ordered by EC50: under 100 nM for the first, under 100 nM for the second.

N#Cc1ccccc1CN1CCC(NC(=O)c2cc3ccc(OC4CCN(c5ccc(OC(F)(F)F)cc5)CC4)cc3o2)CC1 [Compound 97, N-(1-(2-cyanobenzyl)piperidin-4-yl)-6-(1-(4-(trifluoromethoxy)phenyl)piperidin-4-yloxy)benzofuran-2-carboxamide] and N#Cc1ccccc1CN1CCC(NC(=O)c2cc3ccc(OC4CCN(c5ccc(C(F)(F)F)cc5)CC4)cc3o2)CC1 [Compound 98, N-(1-(2-cyanobenzyl)piperidin-4-yl)-6-(1-(4-(trifluoromethyl)phenyl)piperidin-4-yloxy)benzofuran-2-carboxamide] cannot be ordered by EC50: under 100 nM for the first, under 100 nM for the second.

O=C(NC1CCN(Cc2ccc(C(F)(F)F)cc2)CC1)c1cc2ccc(OC3CCN(c4ccc(C(F)(F)F)cc4)CC3)cc2o1 [Compound 99, N-(1-(4-(trifluoromethyl)benzyl)piperidin-4-yl)-6-(1-(4-(trifluoromethyl)phenyl)piperidin-4-yloxy)benzofuran-2-carboxamide] and O=C(NC1CCN(Cc2ccc(C(F)(F)F)cc2)CC1)c1cc2cc(OC3CCN(c4ccc(C(F)(F)F)cc4)CC3)ccc2o1 [Compound 100, N-(1-(4-(trifluoromethyl)benzyl)piperidin-4-yl)-5-(1-(4-(trifluoromethyl)phenyl)piperidin-4-yloxy)benzofuran-2-carboxamide] cannot be ordered by EC50: under 100 nM for the first, under 100 nM for the second.

CN(C(=O)c1cc2cc(OC3CCN(c4ccc(C(F)(F)F)cc4)CC3)ccc2o1)C1CCN(C(=O)OC(C)(C)C)CC1 [Compound 102, tert-butyl 4-(N-methyl-5-(1-(4-(trifluoromethyl)phenyl)piperidin-4-yloxy)benzofuran-2-carboxamido)piperidine-1-carboxylate] and CC(C)(C)OC(=O)N1CC[C@@H](NC(=O)c2cc3cc(OC4CCN(c5ccc(C(F)(F)F)cc5)CC4)ccc3o2)C1 [Compound 120, (R)-tert-butyl 3-(5-(1-(4-(trifluoromethyl)phenyl)piperidin-4-yloxy)benzofuran-2-carboxamido)pyrrolidine-1-carboxylate] fall in the same range of EC50: 1000 to 10000 nM for the first, 1000 to 10000 nM for the second.

First: CN(C(=O)c1cc2cc(OC3CCN(c4ccc(C(F)(F)F)cc4)CC3)ccc2o1)C1CCNCC1 [Compound 103, N-methyl-N-(piperidin-4-yl)-5-(1-(4-(trifluoromethyl)phenyl)piperidin-4-yloxy)benzofuran-2-carboxamide]
Second: CN(C(=O)c1cc2cc(OC3CCN(c4ccc(C(F)(F)F)cc4)CC3)ccc2o1)C1CCN(Cc2ccncc2)CC1 [Compound 104, N-methyl-N-(1-(pyridin-4-ylmethyl)piperidin-4-yl)-5-(1-(4-(trifluoromethyl)phenyl)piperidin-4-yloxy)benzofuran-2-carboxamide]
The EC50 of the first is higher: 1000 to 10000 nM for the first, 100 to 500 nM for the second. The second is the more potent here.

O=C(NC1CCN(S(=O)(=O)c2cccnc2)CC1)c1cc2ccc(OC3CCN(c4ccc(C(F)(F)F)cc4)CC3)cc2o1 [Compound 106, N-(1-(pyridin-3-ylsulfonyl)piperidin-4-yl)-6-(1-(4-(trifluoromethyl)phenyl)piperidin-4-yloxy)benzofuran-2-carboxamide] and O=C(NC1CCN(S(=O)(=O)c2cccnc2)CC1)c1cc2ccc(OC3CCN(c4ccc(OC(F)(F)F)cc4)CC3)cc2o1 [Compound 108, N-(1-(pyridin-3-ylsulfonyl)piperidin-4-yl)-6-(1-(4-(trifluoromethoxy)phenyl)piperidin-4-yloxy)benzofuran-2-carboxamide] fall in the same range of EC50: 100 to 500 nM for the first, 100 to 500 nM for the second.

CN(C(=O)c1cc2cc(OC3CCN(c4ccc(C(F)(F)F)cc4)CC3)ccc2o1)C1CCN(Cc2ccc(C#N)cc2)CC1 [Compound 107, N-(1-(4-cyanobenzyl)piperidin-4-yl)-N-methyl-5-(1-(4-(trifluoromethyl)phenyl)piperidin-4-yloxy)benzofuran-2-carboxamide] and CN(C(=O)c1cc2cc(OC3CCN(c4ccc(C(F)(F)F)cc4)CC3)ccc2o1)C1CCN(Cc2cccc(C#N)c2)CC1 [Compound 110, N-(1-(3-cyanobenzyl)piperidin-4-yl)-N-methyl-5-(1-(4-(trifluoromethyl)phenyl)piperidin-4-yloxy)benzofuran-2-carboxamide] cannot be ordered by EC50: under 100 nM for the first, under 100 nM for the second.

CN(C(=O)c1cc2cc(OC3CCN(c4ccc(C(F)(F)F)cc4)CC3)ccc2o1)C1CCN(Cc2cccnc2)CC1 [Compound 109, N-methyl-N-(1-(pyridin-3-ylmethyl)piperidin-4-yl)-5-(1-(4-(trifluoromethyl)phenyl)piperidin-4-yloxy)benzofuran-2-carboxamide] and CN(C(=O)c1cc2cc(OC3CCN(c4ccc(C(F)(F)F)cc4)CC3)ccc2o1)C1CCN(Cc2ccccn2)CC1 [Compound 117, N-methyl-N-(1-(pyridin-2-ylmethyl)piperidin-4-yl)-5-(1-(4-(trifluoromethyl)phenyl)piperidin-4-yloxy)benzofuran-2-carboxamide] cannot be ordered by EC50: under 100 nM for the first, under 100 nM for the second.

First: CN(C(=O)c1cc2cc(OC3CCN(c4ccc(C(F)(F)F)cc4)CC3)ccc2o1)C1CCN(Cc2ccccc2C#N)CC1 [Compound 111, N-(1-(2-cyanobenzyl)piperidin-4-yl)-N-methyl-5-(1-(4-(trifluoromethyl)phenyl)piperidin-4-yloxy)benzofuran-2-carboxamide]
Second: CN(C(=O)c1cc2cc(OC3CCN(c4ccc(C(F)(F)F)cc4)CC3)ccc2o1)C1CCN(Cc2ccc(C(F)(F)F)cc2)CC1 [Compound 119, N-methyl-N-(1-(4-(trifluoromethyl)benzyl)piperidin-4-yl)-5-(1-(4-(trifluoromethyl)phenyl)piperidin-4-yloxy)benzofuran-2-carboxamide]
The EC50 of the first is higher: 100 to 500 nM for the first, under 100 nM for the second.

O=C(NC1CCN(C(=O)c2ccncc2)CC1)c1cc2ccc(OC3CCN(c4ccc(C(F)(F)F)cc4)CC3)cc2o1 [Compound 112, N-(1-isonicotinoylpiperidin-4-yl)-6-(1-(4-(trifluoromethyl)phenyl)piperidin-4-yloxy)benzofuran-2-carboxamide] and O=C(NC1CCN(C(=O)c2ccncc2)CC1)c1cc2cc(OC3CCN(c4ccc(C(F)(F)F)cc4)CC3)ccc2o1 [Compound 115, N-(1-isonicotinoylpiperidin-4-yl)-5-(1-(4-(trifluoromethyl)phenyl)piperidin-4-yloxy)benzofuran-2-carboxamide] cannot be ordered by EC50: under 100 nM for the first, under 100 nM for the second.

CC(C)(C)OC(=O)N1CCC(NC(=O)c2cc3cc(OC4CCN(Cc5ccc(C#N)cc5)CC4)ccc3o2)CC1 [Compound 113, tert-butyl 4-(5-(1-(4-cyanobenzyl)piperidin-4-yloxy)benzofuran-2-carboxamido)piperidine-1-carboxylate] and N#Cc1ccc(CN2CCC(Oc3ccc4oc(C(=O)NC5CCN(Cc6ccccc6)CC5)cc4c3)CC2)cc1 [Compound 114, N-(1-benzylpiperidin-4-yl)-5-(1-(4-cyanobenzyl)piperidin-4-yloxy)benzofuran-2-carboxamide] fall in the same range of EC50: 100 to 500 nM for the first, 100 to 500 nM for the second.

NC(=O)c1ccc(CN2CCC(Oc3ccc4oc(C(=O)NC5CCN(Cc6ccccc6)CC5)cc4c3)CC2)cc1 [Compound 116, N-(1-benzylpiperidin-4-yl)-5-(1-(4-carbamoylbenzyl)piperidin-4-yloxy)benzofuran-2-carboxamide] and CN(C(=O)c1cc2cc(OC3CCN(c4ccc(C(F)(F)F)cc4)CC3)ccc2o1)C1CCN(C(=O)c2ccncc2)CC1 [Compound 118, N-(1-isonicotinoylpiperidin-4-yl)-N-methyl-5-(1-(4-(trifluoromethyl)phenyl)piperidin-4-yloxy)benzofuran-2-carboxamide] fall in the same range of EC50: 100 to 500 nM for the first, 100 to 500 nM for the second.

Same assay, conditions: Table 4, AMPK activation, ELISA; formate salt

Work on O=C(NC1CCN(Cc2ccncc2)CC1)c1cc2cc(OC3CCN(c4ccc(C(F)(F)F)cc4)CC3)ccc2o1 [Compound 105, N-(1-(pyridin-4-ylmethyl)piperidin-4-yl)-5-(1-(4-(trifluoromethyl)phenyl)piperidin-4-yloxy)benzofuran-2-carboxamide, formate salt] yielded an EC50 of under 100 nM.
